# Data from patent US10913744B2, “LRRK2 inhibitors and methods of making and using the same” (Dana-Farber Cancer Institute, Inc., priority 2015, dated 2021).
# Like-named read-outs stand apart in the source and are kept apart here.
# Key:
# [1] = biological target: EGFR (L747-T751del, Sins) (Homo sapiens (Human), UniProt P00533, DEL747-751/INS746S); assay: KinomeScan; format: binding; conditions: 1 uM
# EGFR (L861Q) = EGFR (L861Q) (Homo sapiens (Human), UniProt P00533, L861Q); assay: KinomeScan; format: binding; conditions: 1 uM
# CSNK1G2 = CSNK1G2 (Homo sapiens (Human), UniProt P78368); assay: KinomeScan; format: binding; conditions: 1 uM
# p38d MAPK = p38d MAPK (Homo sapiens (Human), UniProt O15264); assay: Dundee profiling
# ARK5 = ARK5 (Homo sapiens (Human), UniProt O60285); assay: KinomeScan; format: binding; conditions: 1 uM
# JNK1 = JNK1 (Homo sapiens (Human), UniProt P45983); assay: KinomeScan; format: binding; conditions: 1 uM
# MARK2 = MARK2 (Homo sapiens (Human), UniProt Q7KZI7); assay: Dundee profiling
# Aurora A = Aurora A (Homo sapiens (Human), UniProt O14965); assay: Dundee profiling
# EIF2AK3 = EIF2AK3 (Homo sapiens (Human), UniProt Q9NZJ5); assay: Dundee profiling
# [2] = biological target: JAK1 (JH2domain-pseudokinase) (Homo sapiens (Human), UniProt P23458); assay: KinomeScan; format: binding; conditions: 1 uM
# MARK3 = MARK3 (Homo sapiens (Human), UniProt P27448); assay: Dundee profiling
# [3] = Pharmacokinetic study in mice; format: in vivo, mouse; conditions: for C0: back extrapolated conc.; for Vd: read-out: Vss
# LRRK2[G2019S] = LRRK2[G2019S] (Homo sapiens (Human), UniProt Q5S007, G2019S); assay: LRRK2 enzyme kinase assay, G2019S; format: biochemical; conditions: Table 1; ATP at Km 112 μm
# EGFR (L858R) = EGFR (L858R) (Homo sapiens (Human), UniProt P00533, L858R); assay: KinomeScan; format: binding; conditions: 1 uM
# [4] = biological target: TYK2 (JH1domain-catalytic) (Homo sapiens (Human), UniProt P29597); assay: KinomeScan; format: binding; conditions: 1 uM
# Src = Src (Homo sapiens (Human), UniProt P12931); assay: Dundee profiling
# VEG-FR = assay: Dundee profiling
# ABL = ABL (Homo sapiens (Human), UniProt P00519); assay: Dundee profiling
# STK33 = STK33 (Homo sapiens (Human), UniProt Q9BYT3); assay: Dundee profiling
# PAK2 = PAK2 (Homo sapiens (Human), UniProt Q13177); assay: Dundee profiling
# TAO1 = TAO1 (Homo sapiens (Human), UniProt Q7L7X3); assay: Dundee profiling
# CHK2 = CHK2 (Homo sapiens (Human), UniProt O96017); assay: Dundee profiling
# SYK = SYK (Homo sapiens (Human), UniProt P43405); assay: Dundee profiling
# CK1γ2 = CK1γ2 (Homo sapiens (Human), UniProt P78368); assay: Dundee profiling
# MARK1 = MARK1 (Homo sapiens (Human), UniProt Q9P0L2); assay: Dundee profiling
# MLK3 = MLK3 (Homo sapiens (Human), UniProt Q16584); assay: KinomeScan; format: binding; conditions: 1 uM
# MST1 = MST1 (Homo sapiens (Human), UniProt Q13043); assay: KinomeScan; format: binding; conditions: 1 uM
# EPH-B1 = EPH-B1 (Homo sapiens (Human), UniProt P54762); assay: Dundee profiling
# EGFR (S752-I759del) = EGFR (S752-I759del) (Homo sapiens (Human), UniProt P00533, DEL752-759); assay: KinomeScan; format: binding; conditions: 1 uM
# [5] = read-out: percent remaining enzymatic activity, I1, 1 μM
# [6] = read-out: percent remaining enzymatic activity, I10
# [7] = read-out: percent remaining enzymatic activity
# CHK2, sequence (O96017 whole entry, species assumed): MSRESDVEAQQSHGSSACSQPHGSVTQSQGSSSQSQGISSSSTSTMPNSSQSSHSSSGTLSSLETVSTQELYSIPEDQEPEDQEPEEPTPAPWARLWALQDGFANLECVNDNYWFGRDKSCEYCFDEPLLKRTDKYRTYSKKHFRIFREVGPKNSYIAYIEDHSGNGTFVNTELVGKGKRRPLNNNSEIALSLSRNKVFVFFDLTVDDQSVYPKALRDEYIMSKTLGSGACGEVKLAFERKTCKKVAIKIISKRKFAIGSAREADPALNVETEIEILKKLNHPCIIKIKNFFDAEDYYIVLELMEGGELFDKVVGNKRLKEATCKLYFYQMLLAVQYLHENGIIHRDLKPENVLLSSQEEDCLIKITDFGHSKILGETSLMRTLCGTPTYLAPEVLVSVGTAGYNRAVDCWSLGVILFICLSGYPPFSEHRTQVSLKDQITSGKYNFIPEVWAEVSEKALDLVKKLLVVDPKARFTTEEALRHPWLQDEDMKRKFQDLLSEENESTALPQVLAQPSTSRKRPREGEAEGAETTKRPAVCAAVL
# Aurora A, sequence (O14965 whole entry): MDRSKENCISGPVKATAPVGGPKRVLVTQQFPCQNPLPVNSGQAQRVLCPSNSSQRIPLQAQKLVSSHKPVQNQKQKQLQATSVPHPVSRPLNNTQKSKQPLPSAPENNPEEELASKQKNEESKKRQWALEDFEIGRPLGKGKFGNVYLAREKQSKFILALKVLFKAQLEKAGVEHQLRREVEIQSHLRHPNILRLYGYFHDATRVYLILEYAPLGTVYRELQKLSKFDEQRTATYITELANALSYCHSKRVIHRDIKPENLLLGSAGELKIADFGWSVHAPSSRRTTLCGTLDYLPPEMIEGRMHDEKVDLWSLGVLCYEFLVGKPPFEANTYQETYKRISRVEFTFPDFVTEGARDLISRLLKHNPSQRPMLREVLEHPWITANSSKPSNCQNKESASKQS
# STK33, sequence (Q9BYT3 whole entry, species assumed): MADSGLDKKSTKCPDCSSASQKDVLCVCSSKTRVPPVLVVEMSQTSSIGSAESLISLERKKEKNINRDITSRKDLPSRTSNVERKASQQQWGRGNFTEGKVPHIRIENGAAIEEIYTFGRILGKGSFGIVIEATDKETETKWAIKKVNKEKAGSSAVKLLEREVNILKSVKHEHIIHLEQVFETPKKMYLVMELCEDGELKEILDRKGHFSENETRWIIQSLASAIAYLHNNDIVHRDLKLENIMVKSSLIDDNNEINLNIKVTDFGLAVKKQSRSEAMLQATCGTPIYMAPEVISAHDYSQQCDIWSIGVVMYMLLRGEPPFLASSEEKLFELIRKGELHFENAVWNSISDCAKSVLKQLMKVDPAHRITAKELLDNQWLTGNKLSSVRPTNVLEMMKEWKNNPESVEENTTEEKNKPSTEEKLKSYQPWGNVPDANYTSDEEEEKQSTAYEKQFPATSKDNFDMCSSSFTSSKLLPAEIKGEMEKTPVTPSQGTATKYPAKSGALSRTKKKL
# CK1γ2, sequence (P78368 whole entry): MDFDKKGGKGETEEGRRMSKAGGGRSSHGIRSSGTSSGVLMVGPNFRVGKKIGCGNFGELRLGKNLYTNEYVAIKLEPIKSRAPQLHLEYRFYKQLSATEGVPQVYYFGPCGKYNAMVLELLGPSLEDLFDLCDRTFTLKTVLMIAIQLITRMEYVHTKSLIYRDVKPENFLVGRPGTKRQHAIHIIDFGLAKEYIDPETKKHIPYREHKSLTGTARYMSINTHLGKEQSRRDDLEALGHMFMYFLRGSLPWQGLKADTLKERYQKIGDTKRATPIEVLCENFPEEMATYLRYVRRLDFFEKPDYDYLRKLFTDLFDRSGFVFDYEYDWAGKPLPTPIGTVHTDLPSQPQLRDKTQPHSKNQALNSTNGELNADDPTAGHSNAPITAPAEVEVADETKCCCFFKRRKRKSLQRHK
# MARK2, sequence (Q7KZI7 whole entry, species assumed): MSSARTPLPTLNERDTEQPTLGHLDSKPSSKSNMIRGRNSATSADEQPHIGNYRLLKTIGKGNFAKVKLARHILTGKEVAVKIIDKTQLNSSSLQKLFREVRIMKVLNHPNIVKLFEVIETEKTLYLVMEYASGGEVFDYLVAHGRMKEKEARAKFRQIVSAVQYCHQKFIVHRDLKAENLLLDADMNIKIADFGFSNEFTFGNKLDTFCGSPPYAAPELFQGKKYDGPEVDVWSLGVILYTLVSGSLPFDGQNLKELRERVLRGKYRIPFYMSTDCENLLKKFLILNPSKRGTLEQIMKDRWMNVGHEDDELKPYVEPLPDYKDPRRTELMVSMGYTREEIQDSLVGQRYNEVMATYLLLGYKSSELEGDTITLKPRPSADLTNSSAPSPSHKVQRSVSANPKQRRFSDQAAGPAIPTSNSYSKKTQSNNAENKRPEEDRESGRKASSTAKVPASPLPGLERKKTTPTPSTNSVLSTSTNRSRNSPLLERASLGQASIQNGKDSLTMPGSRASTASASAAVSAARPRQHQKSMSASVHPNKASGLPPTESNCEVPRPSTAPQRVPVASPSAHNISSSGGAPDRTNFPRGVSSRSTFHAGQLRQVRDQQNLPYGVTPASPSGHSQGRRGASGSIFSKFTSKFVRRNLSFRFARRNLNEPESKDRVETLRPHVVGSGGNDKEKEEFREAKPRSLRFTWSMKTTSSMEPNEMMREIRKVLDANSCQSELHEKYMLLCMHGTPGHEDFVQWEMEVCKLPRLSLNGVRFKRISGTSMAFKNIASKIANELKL
# MARK1, sequence (Q9P0L2 whole entry, looked up, species assumed): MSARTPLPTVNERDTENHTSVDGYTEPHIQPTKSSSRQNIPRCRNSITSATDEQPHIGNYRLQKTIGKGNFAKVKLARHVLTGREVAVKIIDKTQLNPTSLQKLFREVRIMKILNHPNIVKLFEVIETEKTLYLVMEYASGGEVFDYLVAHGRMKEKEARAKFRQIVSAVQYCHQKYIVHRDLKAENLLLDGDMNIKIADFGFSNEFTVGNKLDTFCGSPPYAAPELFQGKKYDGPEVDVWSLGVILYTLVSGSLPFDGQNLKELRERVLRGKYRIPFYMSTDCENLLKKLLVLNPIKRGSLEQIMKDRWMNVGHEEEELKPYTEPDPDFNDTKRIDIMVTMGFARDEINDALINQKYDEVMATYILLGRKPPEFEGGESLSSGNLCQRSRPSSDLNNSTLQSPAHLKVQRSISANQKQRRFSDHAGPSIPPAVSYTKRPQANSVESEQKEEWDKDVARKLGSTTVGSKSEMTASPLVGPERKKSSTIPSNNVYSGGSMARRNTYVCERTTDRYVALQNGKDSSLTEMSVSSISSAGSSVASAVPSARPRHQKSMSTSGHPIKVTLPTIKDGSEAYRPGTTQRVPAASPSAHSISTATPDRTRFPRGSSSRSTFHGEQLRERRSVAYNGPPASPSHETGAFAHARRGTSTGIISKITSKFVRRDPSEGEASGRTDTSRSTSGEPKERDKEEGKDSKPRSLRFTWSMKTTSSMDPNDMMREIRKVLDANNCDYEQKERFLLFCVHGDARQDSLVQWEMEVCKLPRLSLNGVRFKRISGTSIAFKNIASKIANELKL
# Src, sequence (P12931 whole entry, looked up, species assumed): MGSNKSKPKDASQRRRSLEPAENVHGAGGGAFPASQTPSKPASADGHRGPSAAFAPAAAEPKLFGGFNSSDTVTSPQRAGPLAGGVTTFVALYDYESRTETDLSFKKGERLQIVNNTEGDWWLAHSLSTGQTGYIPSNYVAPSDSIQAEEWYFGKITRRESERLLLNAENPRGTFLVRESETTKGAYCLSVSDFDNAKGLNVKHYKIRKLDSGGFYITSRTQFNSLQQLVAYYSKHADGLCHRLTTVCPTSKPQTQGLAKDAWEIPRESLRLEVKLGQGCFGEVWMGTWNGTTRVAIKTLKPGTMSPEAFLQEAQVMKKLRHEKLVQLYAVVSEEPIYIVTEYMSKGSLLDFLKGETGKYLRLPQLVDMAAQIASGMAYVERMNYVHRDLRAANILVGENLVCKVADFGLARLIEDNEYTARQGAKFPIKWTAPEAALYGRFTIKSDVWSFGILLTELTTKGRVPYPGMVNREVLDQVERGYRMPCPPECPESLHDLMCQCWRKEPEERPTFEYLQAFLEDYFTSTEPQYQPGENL
# EPH-B1, sequence (P54762 18-984, species assumed): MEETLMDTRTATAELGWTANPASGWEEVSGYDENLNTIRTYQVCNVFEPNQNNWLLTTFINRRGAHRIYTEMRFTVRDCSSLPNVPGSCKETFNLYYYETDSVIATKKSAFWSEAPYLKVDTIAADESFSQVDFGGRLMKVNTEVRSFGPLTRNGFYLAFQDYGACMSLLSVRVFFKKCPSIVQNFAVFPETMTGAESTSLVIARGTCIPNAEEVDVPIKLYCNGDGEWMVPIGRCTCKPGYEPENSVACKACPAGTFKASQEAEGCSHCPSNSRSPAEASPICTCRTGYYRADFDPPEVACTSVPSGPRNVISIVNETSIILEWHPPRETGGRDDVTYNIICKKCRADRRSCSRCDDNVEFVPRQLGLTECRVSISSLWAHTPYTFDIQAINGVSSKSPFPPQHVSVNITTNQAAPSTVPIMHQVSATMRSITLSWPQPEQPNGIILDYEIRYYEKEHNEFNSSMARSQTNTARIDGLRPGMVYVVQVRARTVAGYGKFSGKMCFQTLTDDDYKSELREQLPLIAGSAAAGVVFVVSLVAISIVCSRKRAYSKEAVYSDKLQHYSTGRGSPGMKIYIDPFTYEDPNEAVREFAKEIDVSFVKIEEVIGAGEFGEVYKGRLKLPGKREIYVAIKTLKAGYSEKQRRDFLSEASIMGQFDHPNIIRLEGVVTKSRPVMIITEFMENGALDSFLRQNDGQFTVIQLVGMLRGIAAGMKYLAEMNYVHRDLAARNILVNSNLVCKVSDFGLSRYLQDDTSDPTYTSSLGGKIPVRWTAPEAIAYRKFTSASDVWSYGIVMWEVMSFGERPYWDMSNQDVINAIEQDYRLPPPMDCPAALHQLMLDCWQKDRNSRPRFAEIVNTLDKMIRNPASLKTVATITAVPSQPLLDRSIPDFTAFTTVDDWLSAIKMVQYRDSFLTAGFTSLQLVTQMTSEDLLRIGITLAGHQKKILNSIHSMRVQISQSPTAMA
structure (smiles),measurement,setting,value
"CNc1nc(Nc2ccc(C(=O)N3CCOCC3)cc2OC)nc2[nH]cc(Cl)c12 [Compound 18, (4-((5-chloro-4-(methylamino)-7H-pyrrolo[2,3-d]pyrimidin-2-yl)amino)-3-methoxyphenyl)(morpholino)methanone]",KinomeScan value,[1],84
same,KinomeScan value,EGFR (L861Q),57
same,KinomeScan value,CSNK1G2,100
same,remaining activity at 1 µM,p38d MAPK; [5],107%
same,remaining activity at 1 µM,p38d MAPK; [6],102%
same,KinomeScan value,ARK5,89
same,KinomeScan value,JNK1,60
same,remaining activity at 1 µM,MARK2; [5],101%
same,remaining activity at 1 µM,MARK2; [6],82%
same,remaining activity at 1 µM,Aurora A; [5],124%
same,remaining activity at 1 µM,Aurora A; [6],112%
same,remaining activity at 1 µM,EIF2AK3; [5],102%
same,remaining activity at 1 µM,EIF2AK3; [6],79%
same,KinomeScan value,[2],99
same,remaining activity at 1 µM,MARK3; [5],120%
same,remaining activity at 1 µM,MARK3; [6],92%
same,AUClast,"[3]; Brain, i.v., 2 mg/kg",239.31 ng·h/mL
same,AUClast,"[3]; Plasma, i.v., 2 mg/kg",532.67 ng·h/mL
same,T1/2,"[3]; Plasma, i.v., 2 mg/kg",39.6 min
same,AUClast,"[3]; Plasma, p.o., 10 mg/kg",3094.58 ng·h/mL
same,Kp,"[3]; mouse, brain/plasma, iv, 2 mg/kg i.v., from AUClast, read-out: brain/plasma concentration ratio",0.45
same,AUC(0-inf),"[3]; mouse, iv, Brain, 2 mg/kg",246 ng·h/mL
same,AUC(0-t),"[3]; mouse, iv, Brain, 2 mg/kg",239 ng·h/mL
same,clearance,"[3]; mouse, iv, Brain, 2 mg/kg",135 mL/min/kg
same,half-life,"[3]; mouse, iv, Brain, 2 mg/kg",13.8 min
same,C0,"[3]; mouse, iv, Brain, 2 mg/kg",1340 ng/mL
same,Vd,"[3]; mouse, iv, Brain, i.v., 2 mg/kg",1.7 L/kg
same,AUC(0-inf),"[3]; mouse, iv, Plasma, 2 mg/kg",536 ng·h/mL
same,AUC(0-t),"[3]; mouse, iv, Plasma, 2 mg/kg",533 ng·h/mL
same,clearance,"[3]; mouse, iv, Plasma, 2 mg/kg",62.2 mL/min/kg
same,half-life,"[3]; mouse, iv, Plasma, 2 mg/kg",39.6 min
same,C0,"[3]; mouse, iv, Plasma, 2 mg/kg",1600 ng/mL
same,Vd,"[3]; mouse, iv, Plasma, i.v., 2 mg/kg",1.73 L/kg
same,bioavailability,"[3]; mouse, oral, Plasma, 10 mg/kg p.o. vs 2 mg/kg i.v., from AUClast, read-out: % F (oral bioavailability)",116%
same,AUC(0-inf),"[3]; mouse, po, Brain, 10 mg/kg",762 ng·h/mL
same,AUC(0-t),"[3]; mouse, po, Brain, 10 mg/kg",688 ng·h/mL
same,Cmax,"[3]; mouse, po, Brain, 10 mg/kg",247 ng/mL
same,Tmax,"[3]; mouse, po, Brain, 10 mg/kg",60 min
same,AUC(0-inf),"[3]; mouse, po, Plasma, 10 mg/kg",3870 ng·h/mL
same,AUC(0-t),"[3]; mouse, po, Plasma, 10 mg/kg",3090 ng·h/mL
same,Cmax,"[3]; mouse, po, Plasma, 10 mg/kg",803 ng/mL
same,Tmax,"[3]; mouse, po, Plasma, 10 mg/kg",60 min
same,IC50,LRRK2[G2019S],2.2 nM
same,KinomeScan value,EGFR (L858R),83
same,KinomeScan value,[4],99
same,remaining activity at 1 µM,Src; [5],110%
same,remaining activity at 1 µM,Src; [6],102%
same,percent remaining enzymatic activity,"VEG-FR; I1, 1 μM",104%
same,percent remaining enzymatic activity,VEG-FR; I10,100%
same,remaining activity at 1 µM,ABL; [5],106%
same,remaining activity at 1 µM,ABL; [6],103%
same,remaining activity at 1 µM,STK33; [5],22%
same,remaining activity at 1 µM,STK33; [6],15%
same,remaining activity at 1 µM,PAK2; [5],110%
same,remaining activity at 1 µM,PAK2; [6],102%
same,remaining activity at 1 µM,TAO1; [5],113%
same,remaining activity at 1 µM,TAO1; [6],100%
same,IC50,CHK2,27.6 nM
same,inhibition at 1 µM,CHK2; read-out: inhibition of kinase activity of the DMSO control,> 90%
same,remaining activity at 1 µM,CHK2; [5],5%
same,remaining activity at 1 µM,CHK2; [6],1%
same,percent remaining enzymatic activity,SYK; I10,81%
same,remaining activity at 1 µM,SYK; [7],91%
same,percent remaining enzymatic activity,CK1γ2; I10,45%
same,remaining activity at 1 µM,CK1γ2; [7],100%
same,remaining activity at 1 µM,MARK1; [5],89%
same,remaining activity at 1 µM,MARK1; [6],77%
same,KinomeScan value,MLK3,100
same,KinomeScan value,MST1,100
same,remaining activity at 1 µM,EPH-B1; [5],119%
same,remaining activity at 1 µM,EPH-B1; [6],126%
same,KinomeScan value,EGFR (S752-I759del),97
